Patent US4851518A, “Di and tri-O-acetyl-"O-iso-valeryl-23-O-demycinosyl tylosins, hydrazone derivatives thereof and processes for their preparation” (priority 1985, dated 1989)

Key:
[1] = Serum levels IV in mice (AUCs, 0-3h.), cylinder cup method; assay type: in vivo, male mice (Carworth CF-1); settings: for AUC at 3 h: mouse, in vivo, intravenous single bolus 100 mg./kg.; for AUC at 3 h / serum levels compared with erythromycin, rosaramicin, tylosin, 3-O-acetyl-4"-O-iso-valeryltylosin, 3-O-acetyl-23-O-demycinosyl-4"-O-iso-valeryltylosin, intravenously to mice: 10 mg./ml. in vehicle; for serum levels compared with erythromycin, rosaramicin, tylosin, 3-O-acetyl-4"-O-iso-valeryltylosin, 3-O-acetyl-23-O-demycinosyl-4"-O-iso-valeryltylosin, intravenously to mice: 100 mg./kg.
Protocol: (§1) The serum levels of the compounds of this invention were determined in male mice (Carworth CF-1) weighing 18-20 g. each, and squirrel monkeys weighing ca. 1 kg. each. Groups of six mice were given aqueous solutions of the drugs intravenously as single bolus doses of 100 mg./kg., and groups of six monkeys were given the drugs orally as a single dose of 20, or 50 mg./kg. After 1, 3, 5, 10, 20, 30, 45, 60, 90, 120 and 180 min., mice were killed by cutting the jugular vein and the blood allowed to drain into 8 mm. (diameter) tubes which had been standing in a ice water bath. At each time point, blood from the group of mice was pooled. For monkeys, blood samples were taken after 15, 30, 45, 60, 90, 120, 180, 240 and 360 minutes and were not pooled. The samples were left to clot at room temperature for 15 min. After clotting, the samples were centrifuged for 10 min. Serum was removed and put into another test tube in an ice water bath, until antibiotic levels were determined by a cylinder cup method, with either Bacillus subtilis ATCC 6633, or Micrococcus luteus ATCC 9431 as the test organisms. Stock solutions of each antibacterial were prepared daily in the appropriate vehicle and diluted in homologous serum to prepare a standard curve. Serum samples, diluted where necessary in the appropriate serum, were compared to a standard curve of known potency by standard assay procedures. All assays were done at least twice.
(§2) AUCs (areas under the curves) were obtained from serum level vs. time data by the trapezoidal rule.

[2] = Serum levels PO in squirrel monkeys (AUCs, 0-6h.), cylinder cup method; assay type: in vivo; settings: for AUC at 6 h: monkey, po
Protocol: as §1, with “Serum was removed and put into another test tube in an ice water bath, until antibiotic levels were determined by a cylinder cup method, with either Bacillus subtilis ATCC 6633, or Micrococcus luteus ATCC 9431 as the test organisms.” left out
as §2

[3] = cited from earlier work
[4] = in vivo, 20 mg/kg, oral single dose 20 mg./kg., 20 mg./ml. in PEG 40 castor oil/lactic acid vehicle
[5] = serum, 20 mg/kg, oral single dose 20 mg./kg., 20 mg./ml. in PEG 40 castor oil/lactic acid vehicle
[6] = serum, 20 mg/kg, oral single dose 20 mg./kg., 3.5 mg./ml. in vehicle, crossover experiment

| SMILES | AUC at 3 h [1] | AUC at 6 h [2, 5] | further results |
| --- | --- | --- | --- |
| CC[C@H]1OC(=O)[C@H](C)[C@@H](O[C@H]2C[C@@](C)(OC)[C@@H](O)[C@H](C)O2)[C@H](C)[C@@H](O[C@@H]2O[C@H](C)C[C@H](N(C)C)[C@H]2O)[C@](C)(O)C[C@@H](C)C(=O)[C@H](C)[C@@H](O)[C@]1(C)O [I, Erythromycin, reference compound] | 36100 ng·h/mL | – | AUC at 6 h ([2]; in vivo, 20 mg/kg, oral single dose 20 mg./kg., 3.5 mg./ml. in vehicle): 1500 ng·h/mL; AUC at 6 h ([2]; in vivo, 20 mg/kg, oral single dose 20 mg./kg., 10 mg./ml. in vehicle): 4800 ng·h/mL; AUC at 6 h [2, 4]: 4900 ng·h/mL |
| CC[C@H]1OC(=O)C[C@@H](O)[C@H](C)[C@@H](O[C@@H]2O[C@H](C)C[C@H](N(C)C)[C@H]2O)[C@@H](CC=O)C[C@@H](C)C(=O)/C=C/[C@]2(C)O[C@H]2[C@@H]1C [II, Rosaramicin, reference compound] | – | 2200 ng·h/mL | AUC at 6 h ([2]; serum, 50 mg/kg, oral single dose 50 mg./kg., 50 mg./ml. in vehicle): 6600 ng·h/mL |
| CC[C@H]1OC(=O)C[C@@H](O)[C@H](C)[C@@H](O[C@@H]2O[C@H](C)[C@@H](O[C@H]3C[C@@](C)(O)[C@@H](O)[C@H](C)O3)[C@H](N(C)C)[C@H]2O)[C@@H](CC=O)C[C@@H](C)C(=O)/C=C/C(C)=C/[C@@H]1CO[C@@H]1O[C@H](C)[C@@H](O)[C@@H](OC)[C@H]1OC [III, Tylosin] | 24200 ng·h/mL | – | stability in acidic and basic solution [3]: readily transformed in acidic and basic solution into aldol condensation and Michael addition products; AUC at 6 h [2, 4]: 2600 ng·h/mL; AUC at 6 h ([2]; in vivo, 50 mg/kg, oral single dose 50 mg./kg., 50 mg./ml. in vehicle): 15600 ng·h/mL |
| CC[C@H]1OC(=O)C[C@@H](OC(C)=O)[C@H](C)[C@@H](O[C@@H]2O[C@H](C)[C@@H](O[C@H]3C[C@@](C)(O)[C@@H](OC(=O)CC(C)C)[C@H](C)O3)[C@H](N(C)C)[C@H]2O)[C@@H](CC=O)C[C@@H](C)C(=O)/C=C/C(C)=C/[C@@H]1CO[C@@H]1O[C@H](C)[C@@H](O)[C@@H](OC)[C@H]1OC [IV, 3-O-Acetyl-4"-O-iso-valeryltylosin, reference compound] | 52400 ng·h/mL | 15800 ng·h/mL | AUC at 6 h [2, 6]: 7600 ng·h/mL |
| CC[C@H]1OC(=O)C[C@@H](OC(C)=O)[C@H](C)[C@@H](O[C@@H]2O[C@H](C)[C@@H](O[C@H]3C[C@@](C)(O)[C@@H](OC(=O)CC(C)C)[C@H](C)O3)[C@H](N(C)C)[C@H]2O)[C@@H](CC=NN2CCS(=O)(=O)CC2)C[C@@H](C)C(=O)/C=C/C(C)=C/[C@@H]1CO [IX, 3-O-Acetyl-23-O-demycinosyl-20-deoxo-20-[(4,4-dioxothiomorpholinyl)imino]-4"-O-iso-valeryltylosin] | 40100 ng·h/mL | 2500 ng·h/mL | – |
| CC[C@H]1OC(=O)C[C@@H](OC(C)=O)[C@H](C)[C@@H](O[C@@H]2O[C@H](C)[C@@H](O[C@H]3C[C@@](C)(O)[C@@H](OC(=O)CC(C)C)[C@H](C)O3)[C@H](N(C)C)[C@H]2O)[C@@H](CC=O)C[C@@H](C)C(=O)/C=C/C(C)=C/[C@@H]1CO [V, 3-O-Acetyl-23-O-demycinosyl-4"-O-isovaleryltylosin, reference compound] | 28300 ng·h/mL | 5500 ng·h/mL | – |
| CC[C@H]1OC(=O)C[C@@H](OC(C)=O)[C@H](C)[C@@H](O[C@@H]2O[C@H](C)[C@@H](O[C@H]3C[C@@](C)(O)[C@@H](OC(=O)CC(C)C)[C@H](C)O3)[C@H](N(C)C)[C@H]2OC(C)=O)[C@@H](CC=O)C[C@@H](C)C(=O)/C=C/C(C)=C/[C@@H]1CO [VI, 3,2'-Di-O-acetyl-23-O-demycinosyl-4"-O-iso-valeryltylosin] | – | 10400 ng·h/mL | serum levels compared with 3-O-acetyl-4"-O-iso-valeryltylosin, orally to squirrel monkeys ([2]; 20 mg./kg., 20 mg./ml. in vehicle): slightly lower serum levels; serum levels compared with 3-O-acetyl-4"-O-iso-valeryltylosin, orally to squirrel monkeys ([2]; oral, dose not given): slightly lower serum levels |
| CC[C@H]1OC(=O)C[C@@H](OC(C)=O)[C@H](C)[C@@H](O[C@@H]2O[C@H](C)[C@@H](O[C@H]3C[C@@](C)(O)[C@@H](OC(=O)CC(C)C)[C@H](C)O3)[C@H](N(C)C)[C@H]2OC(C)=O)[C@@H](CC=O)C[C@@H](C)C(=O)/C=C/C(C)=C/[C@@H]1COC(C)=O [VII, 3,23,2'-Tri-O-acetyl-23-O-demycinosyl-4"-O-iso-valeryltylosin] | 69400 ng·h/mL | – | serum levels compared with erythromycin, rosaramicin, tylosin, 3-O-acetyl-4"-O-iso-valeryltylosin, 3-O-acetyl-23-O-demycinosyl-4"-O-iso-valeryltylosin, intravenously to mice [1]: serum levels that are superior; serum levels compared with erythromycin, rosaramicin, tylosin, 3-O-acetyl-23-O-demycinosyl-4"-O-iso-valeryltylosin, 3-O-acetyl-4"-O-iso-valeryltylosin, intravenously to mice ([1]; intravenous, dose not given): higher serum levels; serum levels compared with 3-O-acetyl-4"-O-iso-valeryltylosin, orally to squirrel monkeys ([2]; 20 mg./kg., 3.5 mg./ml. in vehicle): superior serum levels; AUC at 6 h [2, 6]: 13500 ng·h/mL; serum levels compared with 3-O-acetyl-4"-O-iso-valeryltylosin, orally to squirrel monkeys ([2]; oral, dose not given): superior serum levels |
| CC[C@H]1OC(=O)C[C@@H](OC(C)=O)[C@H](C)[C@@H](O[C@@H]2O[C@H](C)[C@@H](O[C@H]3C[C@@](C)(O)[C@@H](OC(=O)CC(C)C)[C@H](C)O3)[C@H](N(C)C)[C@H]2O)[C@@H](CC=NN2CCS(=O)(=O)CC2)C[C@@H](C)C(=O)/C=C/C(C)=C/[C@@H]1CO[C@@H]1O[C@H](C)[C@@H](O)[C@@H](OC)[C@H]1OC [VIII, 3-O-Acetyl-20-deoxo-20-[(4,4-dioxothiomorpholinyl)imino]-4"-O-iso-valeryltylosin] | 67600 ng·h/mL | 7500 ng·h/mL | – |
| CC[C@H]1OC(=O)C[C@@H](OC(C)=O)[C@H](C)[C@@H](O[C@@H]2O[C@H](C)[C@@H](O[C@H]3C[C@@](C)(O)[C@@H](OC(=O)CC(C)C)[C@H](C)O3)[C@H](N(C)C)[C@H]2OC(C)=O)[C@@H](CC=NN2CCS(=O)(=O)CC2)C[C@@H](C)C(=O)/C=C/C(C)=C/[C@@H]1CO [X, 3,2'-Di-O-acetyl-23-O-demycinosyl-20deoxo-20-[(4,4-dioxothiomorpholinyl)imino]-4"-O-iso-valeryltylosin] | 80500 ng·h/mL | 4800 ng·h/mL | – |
| CC[C@H]1OC(=O)C[C@@H](OC(C)=O)[C@H](C)[C@@H](O[C@@H]2O[C@H](C)[C@@H](O[C@H]3C[C@@](C)(O)[C@@H](OC(=O)CC(C)C)[C@H](C)O3)[C@H](N(C)C)[C@H]2O)[C@@H](CC=NN2CCS(=O)(=O)CC2)C[C@@H](C)C(=O)/C=C/C(C)=C/[C@@H]1COC(C)=O [XI, 3,23-Di-O-acetyl-23-O-demycinosyl-20-deoxo-20-[(4,4-dioxothiomorpholinyl)imino]-4"-O-iso-valeryltylosin] | 61800 ng·h/mL | 4600 ng·h/mL | – |
| CC[C@H]1OC(=O)C[C@@H](OC(C)=O)[C@H](C)[C@@H](O[C@@H]2O[C@H](C)[C@@H](O[C@H]3C[C@@](C)(O)[C@@H](OC(=O)CC(C)C)[C@H](C)O3)[C@H](N(C)C)[C@H]2OC(C)=O)[C@@H](CC=NN2CCS(=O)(=O)CC2)C[C@@H](C)C(=O)/C=C/C(C)=C/[C@@H]1COC(C)=O [XII, 3,23,2'-Tri-O-acetyl-23-O-demycinosyl-20-deoxo-20-[(4,4-dioxothiomorpholinyl)imino]-4"-O-iso-valeryltylosin] | 154000 ng·h/mL | – | serum levels compared with erythromycin, rosaramicin, tylosin, 3-O-acetyl-4"-O-iso-valeryltylosin, 3-O-acetyl-23-O-demycinosyl-4"-O-iso-valeryltylosin, intravenously to mice [1]: serum levels that are superior; AUC at 6 h ([2]; serum, 20 mg/kg, oral single dose 20 mg./kg., 3.5 mg./ml. in vehicle): 3800 ng·h/mL |
| CC[C@H]1OC(=O)C[C@@H](OC(C)=O)[C@H](C)[C@@H](O[C@@H]2O[C@H](C)[C@@H](O[C@H]3C[C@@](C)(O)[C@@H](OC(=O)CC(C)C)[C@H](C)O3)[C@H](N(C)C)[C@H]2O)[C@@H](CC=NN2CCS(=O)(=O)CC2)C[C@@H](C)C(=O)/C=C/C(C)=C/[C@@H]1COC(=O)Cc1ccccc1 [XIII, 3-O-Acetyl-23-O-demycinosyl-20-deoxo-20-[(4,4-dioxothiomorpholinyl)imino]-23-O-phenylacetyl-4"-O-iso-valeryltylosin] | 43400 ng·h/mL | – | – |
